Each block holds one compound with its values, some of them ahead of it.
How the values were obtained:
[1] = tested on: acetylcholine receptors; conditions: scale where acetylcholine is 100; Keyl et al., 1957; cited from earlier work
[2] = format: in vitro ADME
From the text: The C8910 fatty acids are volatile (Reifenrath, 2015b), and 24-61% of the applied dose evaporated exponentially from clay formulation applied to skin. Skin penetration will also limit duration for dermal treatments (e.g., about 50-75% of the applied dose of octanoic and decanoic acid penetrated cattle skin from mineral oil). To provide finer control of these modes of loss, the development of longer lasting controlled-release formulations (clay nanotubes, disintegrating granules, and microcapsules) for use as premises spray and direct skin application for protecting cattle against biting flies and ticks was investigated (Reifenrath, 2015c), with none of the carriers showing an extended duration. Since that time, however, it has been shown that an aqueous dilution (to 1% C8910) of an emulsifiable concentrate could achieve a similar duration of effectiveness (2-3 days after a single treatment) as the 15% oil formulation. […] The limited duration of such a formulation can be overcome by more frequent application (e.g. walk-through sprayers).

[3] = tested on: German cockroaches (Blattella germanica); experiment: Laboratory Petri dish incapacitation test, German cockroaches; format: in vivo; conditions: aqueous emulsion, 6 roaches per dish
From the text: (§1) Mixed sex stable flies (Stomoxys calcitrans) were obtained as pupae from a colony at the University of Nebraska West Central Research and Extension Center, North Platte, Nebraska. Mixed sex horn flies (Haematobia irritans), sensitive and knockdown resistant (Kdr), were obtained as pupae from a colony at The Center for Animal Health and Food Safety, New Mexico State University, Las Cruces, New Mexico. Adult horn and stable flies were allowed to emerge in 1 cubic foot cages at approximately 80 degrees Fahrenheit and were maintained on citrated whole blood (Quad Five, Rygate, Montana). Mixed sex house flies (Musca domestica) were obtained as pupae from Carolina Biological, Charlotte, North Carolina Adults were allowed to emerge in 1 cubic foot cages at approximately 80 degrees Fahrenheit and were maintained on water and sugar cubes. Mixed sex German cockroaches (Blattella germanica) were obtained as adults from Carolina Biological. Prior to use, roaches were kept with the supplied food source in paper towels contained in 1 cubic foot cages. Flies were used 4-6 days post emergence.
(§2) An aqueous emulsion of the octanoic/decanoic acid mix (C8C10) was prepared by addition to an aqueous solution of the sodium salts of the fatty acids, prepared by mixing equal molar amounts of sodium hydroxide and fatty acid.

[4] = tested on: Knockdown Resistant (Kdr) Horn Fly (Haematobia irritans); experiment: Laboratory Petri dish incapacitation test, knockdown resistant (Kdr) horn flies; format: in vivo; conditions: C8C10 organic aqueous emulsion, Kdr strain
From the text: as §1, §2

[5] = tested on: house flies (Musca domestica); experiment: Laboratory Petri dish incapacitation test, house flies; format: in vivo; conditions: aqueous emulsion, N = 3-4
From the text: as §1, §2

[6] = tested on: insect; conditions: 1% choline chloride in distilled water
From the text: However, several factors (e.g., volatility, skin penetration, odor, irritation of the skin, eyes, and respiratory passages, leaf wilt, incapacitation reversibility, etc.) inherent to fatty acids may limit their practical use for certain applications as a biopesticide, especially when used at a high dosage.

[7] = tested on: stable flies (Stomoxys calcitrans); experiment: Laboratory Petri dish filter paper incapacitation test, stable flies; format: in vivo; conditions: 1 ml on 9 cm filter paper in Petri dish
From the text: as §1, §2

[8] = tested on: Sensitive Horn Fly (Haematobia irritans); experiment: Laboratory Petri dish incapacitation test, sensitive horn flies; format: in vivo; conditions: C8C10 organic aqueous emulsion, sensitive strain
From the text: as §1, §2

SMILES: CCCC(=O)OCC[N+](C)(C)C [Formulation C4]
relative potency [1]: 100

applied dose penetrated cattle skin [2]: 50-75%
SMILES: CCCCCCCC(=O)O [octanoic acid]

SMILES: C[N+](C)(C)CCO.[Cl-] [Choline Chloride, 1.0%, Choline chloride]
% Incapacitation at 24 h (Mean +/− S.D., N = 3) [3]: 0 +/− 0%
% Incapacitation at 24 h (Mean +/− S.D., N = 3) ([3]; listed as choline chloride): no effect
% Incapacitation at 24 h (Mean +/− S.D., N = 3), Kdr [4]: 2 +/− 4%
% Incapacitation at 24 h (Mean +/− S.D.) [5]: 0 +/− 0%
insecticidal effect [6]: little or no insecticidal effect
% Incapacitation at 24 h (Mean +/− S.D., N = 3) [7]: 4 +/− 3%
% Incapacitation at 24 h (Mean +/− S.D., N = 3), Sensitive [8]: 0 +/− 0%

SMILES: CCCCCC(=O)OCC[N+](C)(C)C [Formulation C6]
relative potency [1]: 20

applied dose penetrated cattle skin [2]: 50-75%
SMILES: CCCCCCCCCC(=O)O [decanoic acid]

SMILES: CCCCC(=O)OCC[N+](C)(C)C [Formulation C5]
relative potency [1]: 54

From patent US12610948B2, “Choline chloride adjuvant for fatty acid based biopesticide” (Stratacor, Inc., priority 2020, dated 2026)
